The text below walks through data of ChEMBL document CHEMBL1143776, “Thioimidoyl furanosides as first inhibitors of the alpha-L-arabinofuranosidase AbfD3” (Bioorg Med Chem Lett, 2007).

Some results are limits rather than exact numbers.

The nature of this test: Inhibition of AbfD3.
On to `OC[C@@H]1O[C@@H](Sc2ncccn2)[C@H](O)[C@H]1O`, for which the IC50 (usually the midpoint of a concentration-inhibition curve) is less than 100 µM. In turn, `OC[C@@H]1O[C@@H](Sc2nc3ccccc3[nH]2)[C@H](O)[C@H]1O` came in with an IC50 of less than 100 µM.

As to `OC[C@@H]1O[C@@H](Sc2nccs2)[C@H](O)[C@H]1O`, the IC50 was less than 100 µM.

`OC[C@@H]1O[C@@H](Sc2nc3ccccc3s2)[C@H](O)[C@H]1O` returned an IC50 of less than 100 µM. The same measure for `OC[C@@H]1O[C@@H](Sc2ccccn2)[C@H](O)[C@H]1O`: less than 100 µM.
